Test results reported in patent US20240207267A1, “(R)-Glutarimide CRBN Ligands and Methods of Use” (BeiGene Switzerland GmbH, priority 2021, published 2024).
pIC50: −log10 of the molar value.

Key:
CRBN&DDB1 protein = CRBN&DDB1 protein (Homo sapiens (Human), UniProt Q96SW2); assay: CRBN&DDB1 HTRF (TR-FRET) assay, blocking binding of biotin labeled thalidomide; settings: CRBN&DDB1 protein (His Tag), 30 nM biotin labeled thalidomide
Description: Biochemical potency of compound was determined by using CRBN& DDB1 protein (His Tag). Compounds were tested for blocking the binding of CRBN&DDB1 protein (CRBN, aa 40-442, DDB1, 1-1140, Viva Biotech) with biotin labeled thalidomide in an assay based on the time-resolved fluorescence-resonance energy transfer (TR-FRET) methodology. The assay was carried out in 384-well low volume black plates in a reaction mixture containing CRBN& DDB1 protein, 30 nM biotin labeled thalidomide and 0-10 μM compound in buffer containing 50 mM HEPES pH7.5, 50 mM NaCl, 0.01% BSA, 1 mM DTT and 0.015% Brij-35. The protein was preincubated with compound for 60 minutes at room temperature and biotin labeled thalidomide was added to plate. After further incubation at room temperature for 60 minutes detection reagents Mab Anti-6His Eu cryptate Gold (Cisbio, Cat #61HI2KLB) and Streptavidin-XL665 (Cisbio, Cat #610SAXLG) were added to plate. Plates were sealed and incubated at room temperature for 1 hour, and the TR-FRET signals (ex337 nm, em665 nm/620 nm) were recorded on a PHERAstar FSX plate reader (BMG Labtech). The inhibition percentage of CRBN& DDB1 protein interaction with biotin labeled thalidomide in presence of increasing concentrations of compounds was calculated based on the ratio of fluorescence at 665 nm to that at 620 nm. IC50 was derived from fitting the dose-response % inhibition data to the four-parameter logistic model by Dotmatics.
Four-parameter logistic equation: Y=Bottom+(Top−Bottom)/(1+10^((LogIC50−X) *HillSlope)). While X is Log of compound concentration. Y is % inhibition at X. Bottom is the bottom of the curve effect. Top is the top of the curve effect. HillSlope is the hill slope factor.

[1] = system: EGFR Del19/T790M/C797S (H1975-clone #28 cells); assay: EGFR degradation HTRF assay in H1975-clone #28 cells; type: cell-based; settings: H1975-clone #28(Del19/T790M/C797S) cells, 16 h treatment, Table 2; for DC50: read-out: H1975 # 28 DTC DC50; for H1975 # 28 DTC Dmax: maximum percentage of degradation
Description: H1975-clone #28(Del19/T790M/C797S) was stably expressed in H1975 cell lines (from ATCC) by lentivirus-mediated over-expression. The EGFR over-expressed cells then underwent gene knockout, in which the EGFR targeting sgRNA was designed to only target the endogenous EGFR copies and preserve the exogenous EGFR copies. Followed by the gene knockout, the edited H1975 cells were seeded in 96 well plates at the concentration of […], cultured for about 2 weeks to allow single clones formation. The formed clones were screened by DNA sequencing and whole exon sequencing analysis for the desired edition. H1975-clone #28 was finally confirmed as homozygous Del19/T790M/C797S EGFR clone
(§1) BaF3-LTC(L858R/T790M/C797S) and BaF3-DTC(Del19/T790M/C797S) cells are treated with compounds diluted in 0.2% DMSO cell culture medium and incubate for 16 h, 37° C., 5% CO2, H1975- #28 cells are treated with compounds diluted in 0.2% DMSO cell culture medium on day 2, incubate for 16 h, 37° C., 5% CO2. the final concentration of compounds in all assay is start with 10 uM, 5-fold dilution, total 8 doses were included.
(§2) After 16 h treatment, add HTRF lysis buffer to each well; seal the plate and incubate 1 hour at room temperature on a plate shaker; Once the cells are lysed, 16 μL of cell lysate are transferred to a PE 384-well HTRF detection plate; 4 μL of pre-mixed HTRF antibodies are added to each well; Cover the plate with a plate sealer, spin 1000 rpm for 1 min, Incubate overnight at room temperature; Read on BMG PheraStar with HTRF protocol (337 nm-665 nm-620 nm).
(§3) The IC50 (DC50) value of a compound can be obtained by fitting the following equation
(§4) Y=Bottom+(TOP−Bottom)/(1+((IC50/X)^hillslope))
(§5) Wherein, X and Y are known values, and IC50, Hillslope, Top and Bottom are the parameters obtained by fitting with software. Y is the inhibition percentage (calculated from the equation), X is the concentration of the compound; IC50 is the concentration of the compound when the 50% inhibition is reached. The smaller the IC50 value is, the stronger the inhibitory ability of the compound is. Vice versa, the higher the IC50 value is, the weaker the ability the inhibitory ability of the compound is; Hillslope represents the slope of the fitted curve, generally around 1*; Bottom represents the minimum value of the curve obtained by data fitting, which is generally 0%±20%; Top represents the maximum value of the curve obtained by data fitting, which is generally 100%±20%. The experimental data were fitted by calculating and analyzing with Dotmatics data analysis software.

[2] = molecular target: EGFR L858R/T790M/C797S (BaF3-LTC cells) (Homo sapiens (Human), UniProt P00533, C797S/L858R/T790M); assay: EGFR degradation HTRF assay in BaF3-LTC cells; type: cell-based; settings: 16 h treatment; for DC50: Table 2, read-out: BaF3-LTC DC50; for Dmax: maximum percentage of degradation, Table 2, read-out: BaF3-LTC Dmax
Description: as §1, §2, §3, §4, §5

Chain of EGFR L858R/T790M/C797S (BaF3-LTC cells) (P00533 25-1210 T790M/C797S/L858R): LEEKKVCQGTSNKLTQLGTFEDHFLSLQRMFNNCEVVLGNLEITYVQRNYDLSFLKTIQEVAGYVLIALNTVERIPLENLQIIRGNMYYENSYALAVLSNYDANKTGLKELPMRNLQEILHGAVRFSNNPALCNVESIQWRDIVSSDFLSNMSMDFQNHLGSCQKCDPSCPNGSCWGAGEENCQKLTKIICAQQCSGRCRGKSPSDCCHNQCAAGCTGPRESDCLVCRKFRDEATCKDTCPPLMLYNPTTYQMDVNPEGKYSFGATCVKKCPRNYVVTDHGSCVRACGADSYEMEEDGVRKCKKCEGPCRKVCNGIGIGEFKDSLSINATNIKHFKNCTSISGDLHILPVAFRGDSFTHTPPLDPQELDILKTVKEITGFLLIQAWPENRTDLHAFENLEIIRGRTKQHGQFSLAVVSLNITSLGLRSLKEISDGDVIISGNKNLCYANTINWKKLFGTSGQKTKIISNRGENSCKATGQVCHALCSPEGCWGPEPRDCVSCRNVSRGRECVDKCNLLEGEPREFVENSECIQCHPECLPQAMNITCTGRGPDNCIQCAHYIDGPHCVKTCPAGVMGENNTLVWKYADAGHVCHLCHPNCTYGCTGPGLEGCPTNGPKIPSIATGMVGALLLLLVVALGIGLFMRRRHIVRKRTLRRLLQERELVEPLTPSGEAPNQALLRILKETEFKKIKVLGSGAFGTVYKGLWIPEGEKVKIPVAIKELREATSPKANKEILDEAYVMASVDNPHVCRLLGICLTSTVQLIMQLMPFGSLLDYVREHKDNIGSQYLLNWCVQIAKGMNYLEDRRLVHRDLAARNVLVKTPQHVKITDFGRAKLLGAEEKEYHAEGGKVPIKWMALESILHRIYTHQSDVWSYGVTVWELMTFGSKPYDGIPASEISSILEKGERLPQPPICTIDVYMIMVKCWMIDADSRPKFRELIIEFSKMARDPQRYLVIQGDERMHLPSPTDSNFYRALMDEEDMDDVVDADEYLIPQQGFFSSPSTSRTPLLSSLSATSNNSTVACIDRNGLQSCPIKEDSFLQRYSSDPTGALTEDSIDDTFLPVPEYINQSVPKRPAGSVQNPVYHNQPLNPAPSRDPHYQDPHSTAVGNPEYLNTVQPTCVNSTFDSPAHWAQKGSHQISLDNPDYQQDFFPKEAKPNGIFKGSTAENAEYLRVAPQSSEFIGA
Chain of CRBN&DDB1 protein (Q96SW2 40-442): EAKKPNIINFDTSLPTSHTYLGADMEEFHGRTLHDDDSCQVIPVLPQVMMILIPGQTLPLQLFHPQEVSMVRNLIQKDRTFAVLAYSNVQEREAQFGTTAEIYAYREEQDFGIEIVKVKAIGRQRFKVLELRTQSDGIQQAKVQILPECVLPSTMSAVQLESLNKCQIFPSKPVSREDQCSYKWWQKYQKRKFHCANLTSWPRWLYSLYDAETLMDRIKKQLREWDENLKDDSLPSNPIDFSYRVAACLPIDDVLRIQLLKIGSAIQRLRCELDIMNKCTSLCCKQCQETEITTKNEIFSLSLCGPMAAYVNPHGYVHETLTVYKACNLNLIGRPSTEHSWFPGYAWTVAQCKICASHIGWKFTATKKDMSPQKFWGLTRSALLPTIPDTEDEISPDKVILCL
Chain of CRBN&DDB1 protein (Q16531 whole entry partner, the tested form may be a part): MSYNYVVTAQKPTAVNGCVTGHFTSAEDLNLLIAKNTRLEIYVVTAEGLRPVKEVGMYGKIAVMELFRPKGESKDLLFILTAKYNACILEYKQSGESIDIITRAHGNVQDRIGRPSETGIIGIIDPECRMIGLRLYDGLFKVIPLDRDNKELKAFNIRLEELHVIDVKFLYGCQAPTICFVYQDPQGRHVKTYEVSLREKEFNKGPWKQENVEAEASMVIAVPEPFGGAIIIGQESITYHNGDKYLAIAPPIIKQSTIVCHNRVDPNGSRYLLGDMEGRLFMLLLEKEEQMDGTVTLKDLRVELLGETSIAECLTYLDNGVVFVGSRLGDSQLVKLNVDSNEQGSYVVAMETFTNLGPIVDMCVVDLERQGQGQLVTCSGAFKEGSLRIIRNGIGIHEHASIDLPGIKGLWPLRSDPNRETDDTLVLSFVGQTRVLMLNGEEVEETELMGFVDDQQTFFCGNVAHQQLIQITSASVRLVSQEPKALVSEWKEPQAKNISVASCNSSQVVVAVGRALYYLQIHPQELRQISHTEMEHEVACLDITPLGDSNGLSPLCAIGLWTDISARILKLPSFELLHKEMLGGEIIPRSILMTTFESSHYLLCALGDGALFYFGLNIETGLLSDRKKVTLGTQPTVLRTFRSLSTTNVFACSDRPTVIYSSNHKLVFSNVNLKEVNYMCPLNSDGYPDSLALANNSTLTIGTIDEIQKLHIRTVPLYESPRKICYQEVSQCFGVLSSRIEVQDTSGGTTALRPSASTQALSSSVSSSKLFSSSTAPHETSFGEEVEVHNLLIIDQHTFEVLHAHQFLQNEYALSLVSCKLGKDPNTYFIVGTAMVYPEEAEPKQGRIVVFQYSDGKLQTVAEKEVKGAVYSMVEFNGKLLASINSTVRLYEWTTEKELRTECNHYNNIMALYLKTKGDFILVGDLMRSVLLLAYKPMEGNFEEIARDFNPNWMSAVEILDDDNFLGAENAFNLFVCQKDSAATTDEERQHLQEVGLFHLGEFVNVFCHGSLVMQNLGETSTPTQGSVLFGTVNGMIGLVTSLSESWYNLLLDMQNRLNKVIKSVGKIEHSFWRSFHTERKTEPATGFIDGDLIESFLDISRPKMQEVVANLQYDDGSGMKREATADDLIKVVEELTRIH

Compound | pIC50 (CRBN&DDB1 protein) | DC50 [1] [nM] | H1975 # 28 DTC Dmax [1] [%] | DC50 [2] [nM] | Dmax [2] [%]
CCO/C=C/c1cc(F)c([C@@H]2CCC(=O)NC2=O)c(F)c1 [Example 2, (S,E)-3-(4-(2-ethoxyvinyl)-2,6-difluorophenyl)piperidine-2,6-dione] | 6.39 |  |  |  | 
O=C1CC[C@H](c2c(F)cc(N3CC[C@@H](C(=O)O)C3)cc2F)C(=O)N1 [Example 5, (R)-1-(4-((R)-2,6-dioxopiperidin-3-yl)-3,5-difluorophenyl)pyrrolidine-3-carboxylic acid] | 7.59 |  |  |  | 
O=C1CC[C@@H](c2c(F)cc(N3CC[C@@H](C(=O)O)C3)cc2F)C(=O)N1 [Example 6, (R)-1-(4-((S)-2,6-dioxopiperidin-3-yl)-3,5-difluorophenyl)pyrrolidine-3-carboxylic acid] | 5.97 |  |  |  | 
O=C1CC[C@H](c2c(F)cc(N3CC[C@@H](CO)C3)cc2F)C(=O)N1 [Example 7, (R)-3-(2,6-difluoro-4-((R)-3-(hydroxymethyl)pyrrolidin-1-yl)phenyl)piperidine-2,6-dione] | 7.66 |  |  |  | 
O=C1CCC(c2c(F)cc(N3CC(CO)C3)cc2F)C(=O)N1 (stereo not drawn) [Example 9, 3-(2,6-difluoro-4-(3-(hydroxymethyl)azetidin-1-yl)phenyl)piperidine-2,6-dione] | 7.19 |  |  |  | 
O=C1CCC(c2ccc(N3CC[C@@H](C(=O)O)C3)cc2)C(=O)N1 (stereo partly drawn) [Example 12, (3R)-1-(4-(2,6-dioxopiperidin-3-yl)phenyl)pyrrolidine-3-carboxylic acid] | 6.75 |  |  |  | 
CCO/C=C/c1cc(F)c([C@H]2CCC(=O)NC2=O)c(F)c1 [Example 13, (R,E)-3-(4-(2-ethoxyvinyl)-2,6-difluorophenyl)piperidine-2,6-dione] | 7.57 |  |  |  | 
CCc1ccc2c(P(C)(C)=O)c(Nc3nc(Nc4cc(CC)c(N5CCC(N6CCN(CCc7cc(F)c([C@@H]8CCC(=O)NC8=O)c(F)c7)CC6)CC5)cc4OC)ncc3Br)ccc2n1 [Example 20, (S)-3-(4-(2-(4-(1-(4-((5-bromo-4-((5-(dimethylphosphoryl)-2-ethylquinolin-6-yl)amino)pyrimidin-2-yl)amino)-2-ethyl-5-methoxyphenyl)piperidin-4-yl)piperazin-1-yl)ethyl)-2,6-difluorophenyl)piperidine-2,6-dione] |  | > 10000 | 19.09 | 90 | 69
CCc1ccc2c(P(C)(C)=O)c(Nc3nc(Nc4cc(CC)c(N5CCC(N6CCN(CCc7cc(F)c([C@H]8CCC(=O)NC8=O)c(F)c7)CC6)CC5)cc4OC)ncc3Br)ccc2n1 [Example 21, (R)-3-(4-(2-(4-(1-(4-((5-bromo-4-((5-(dimethylphosphoryl)-2-ethylquinolin-6-yl)amino)pyrimidin-2-yl)amino)-2-ethyl-5-methoxyphenyl)piperidin-4-yl)piperazin-1-yl)ethyl)-2,6-difluorophenyl)piperidine-2,6-dione] |  | 0.78 | 89.6 | 6.77 | 
CCc1cc(Nc2ncc(Br)c(Nc3ccc4nc(C)ccc4c3P(C)(C)=O)n2)c(OC)cc1N1CCC(N2CCN(C(=O)[C@@H]3CCN(c4cc(F)c([C@H]5CCC(=O)NC5=O)c(F)c4)C3)CC2)CC1 [Example 22, (R)-3-(4-((R)-3-(4-(1-(4-((5-bromo-4-((5-(dimethylphosphoryl)-2-methylquinolin-6-yl)amino)pyrimidin-2-yl)amino)-2-ethyl-5-methoxyphenyl)piperidin-4-yl)piperazine-1-carbonyl)pyrrolidin-1-yl)-2,6-difluorophenyl)piperidine-2,6-dione] |  | 1.17 | 84.8 | 5.23 | 
CCc1ccc2c(P(C)(C)=O)c(Nc3nc(Nc4cc(CC)c(N5CCC(N6CCN(C(=O)[C@@H]7CCN(c8cc(F)c([C@H]9CCC(=O)NC9=O)c(F)c8)C7)CC6)CC5)cc4OC)ncc3Br)ccc2n1 [Example 24, (R)-3-(4-((R)-3-(4-(1-(4-((5-bromo-4-((5-(dimethylphosphoryl)-2-ethylquinolin-6-yl)amino)pyrimidin-2-yl)amino)-2-ethyl-5-methoxyphenyl)piperidin-4-yl)piperazine-1-carbonyl)pyrrolidin-1-yl)-2,6-difluorophenyl)piperidine-2,6-dione] |  | 1.37 | 82.72 | 8.99 | 
CCc1ccc2c(P(C)(C)=O)c(Nc3nc(Nc4cc(CC)c(N5CCC(N6CCN(C(=O)[C@@H]7CCN(c8cc(F)c([C@@H]9CCC(=O)NC9=O)c(F)c8)C7)CC6)CC5)cc4OC)ncc3Br)ccc2n1 [Example 25, (S)-3-(4-((R)-3-(4-(1-(4-((5-bromo-4-((5-(dimethylphosphoryl)-2-ethylquinolin-6-yl)amino)pyrimidin-2-yl)amino)-2-ethyl-5-methoxyphenyl)piperidin-4-yl)piperazine-1-carbonyl)pyrrolidin-1-yl)-2,6-difluorophenyl)piperidine-2,6-dione] |  | > 10000 | −8.4 | 360 | 57.2
CCc1cc(Nc2ncc(Br)c(Nc3ccc4nc(C)ccc4c3P(C)(C)=O)n2)c(OC2CC2)cc1N1CCC(N2CCN(CCc3cc(F)c([C@H]4CCC(=O)NC4=O)c(F)c3)CC2)CC1 [Example 26, (R)-3-(4-(2-(4-(1-(4-((5-bromo-4-((5-(dimethylphosphoryl)-2-methylquinolin-6-yl)amino)pyrimidin-2-yl)amino)-5-cyclopropoxy-2-ethylphenyl)piperidin-4-yl)piperazin-1-yl)ethyl)-2,6-difluorophenyl)piperidine-2,6-dione] |  | 0.851 | 86.08 |  | 
CCc1cc(Nc2ncc(Br)c(Nc3ccc4nc(C)ccc4c3P(C)(C)=O)n2)c(OC)cc1N1CCC(N2CCN(C(=O)[C@@H]3CCN(c4ccc([C@H]5CCC(=O)NC5=O)cc4)C3)CC2)CC1 [Example 28, (R)-3-(4-((R)-3-(4-(1-(4-((5-bromo-4-((5-(dimethylphosphoryl)-2-methylquinolin-6-yl)amino)pyrimidin-2-yl)amino)-2-ethyl-5-methoxyphenyl)piperidin-4-yl)piperazine-1-carbonyl)pyrrolidin-1-yl)phenyl)piperidine-2,6-dione] |  | 0.595 | 62.25 | 7.8 | 
CCc1cc(Nc2ncc(Br)c(Nc3ccc4nc(C)ccc4c3P(C)(C)=O)n2)c(OC)cc1N1CCC(N2CCN(C(=O)[C@@H]3CCN(c4ccc([C@@H]5CCC(=O)NC5=O)cc4)C3)CC2)CC1 [Example 29, (S)-3-(4-((R)-3-(4-(1-(4-((5-bromo-4-((5-(dimethylphosphoryl)-2-methylquinolin-6-yl)amino)pyrimidin-2-yl)amino)-2-ethyl-5-methoxyphenyl)piperidin-4-yl)piperazine-1-carbonyl)pyrrolidin-1-yl)phenyl)piperidine-2,6-dione] |  | > 10000 | −4.12 | 85.4 | 77.1
